Reference: patent publication US20120308570A1, “METHODS FOR TREATING DISEASES” (priority 2009, published 2012)
Changes are numbered by the printed parent chain.

Key:
Y120A-SSB-2ΔSB = molecular target: T1, Y120A-SSB-2ΔSB (Mus musculus, UniProt O88838, Y120A); assay: ITC of Y120A mutant SSB-2 SPRY domain with iNOS peptide; type: binding; details: versus SSB-2ΔSB
T1 construct: tyrosine 120 had been mutated to alanine (Y120A-SSB-2ΔSB; a.a.12-224); GST (N, cleaved yes); made in house; host or cells: E. coli (bacterially expressed)
T1 sequence (O88838 12-224 Y120A): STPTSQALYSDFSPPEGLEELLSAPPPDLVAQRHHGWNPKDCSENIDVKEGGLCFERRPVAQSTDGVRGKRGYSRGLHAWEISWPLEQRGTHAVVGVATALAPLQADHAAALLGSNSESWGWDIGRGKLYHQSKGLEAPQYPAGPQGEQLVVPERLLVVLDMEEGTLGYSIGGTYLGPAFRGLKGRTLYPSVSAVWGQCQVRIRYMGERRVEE
Method: Wild-type and mutant iNOS peptides (Table 2), corresponding to Lys19-Thr31 of mouse iNOS, were synthesized by GL Biochem (Shanghai) Ltd. These peptides were N-terminal acetylated and C-terminal amidated. All ITC measurements were carried out at 25° C. using a Microcal omega VP-ITC (Microcal Inc., Northampton, Mass.). SSB-2ΔSB was dialysed against buffer (100 mM TrisHCl, 150 mM NaCl, pH 8.0), and wild-type and mutant iNOS N-terminal peptides were prepared in the same buffer from 5 mM stocks. Solutions of 5 to 10 μM SSB-2ΔSB in the cell were titrated by injection of a total of 290 μL of 50-200 μM of iNOS peptides. Data analysis was performed using the evaluation software, MicroCal Origin version 5.0. All curves were fitted using the nonlinear least-squares fitter and the “One Set of Sites” model.
Additional conserved residues flanking the DINNN (SEQ ID NO:36) sequence (Lys22, Val28 and Lys30) also contribute to the interaction, as alanine substitutions of these residues had 2- to 4-fold lower SSB-2 binding affinities than the wild-type peptide. […] Mutation of Glu21 had no effect on SSB-2:iNOS peptide binding. […] Binding of an SSB-2-SPRY domain in which tyrosine 120 had. been mutated to alanine (Y120A-SSB-2ΔSB) was assessed by ITC. The iNOS peptide bound Y120A-SSB-2ΔSB with ˜5000-fold reduced affinity, evidence that Tyr120 in SSB-2 is critical for binding to the iNOS peptide (Table 2).

SSB-2ΔSB = molecular target: T2, SSB-2ΔSB (Mus musculus, UniProt O88838); assay: 1H-15N HSQC NMR titration of iNOS peptide into 15N-labelled SSB-2ΔSB; type: binding; details: 0.1 mM SSB-2ΔSB, ratios 1:0.5, 1:1, 1:1.5, pH 7.0, 22° C.
T2 construct: GST (N, cleaved yes); made in house; host or cells: E. coli BL21 (DE3)
T2 sequence (O88838 12-224): T1 sequence (O88838 12-224 Y120A) with A109Y
Method: NMR spectra were recorded on an Avance 500 spectrometer equipped with a cryoprobe. The ^1H chemical shifts were referenced indirectly to DSS at 0 ppm via the H2O signal, and the ^13C and ^15N chemical shifts were referenced indirectly using absolute frequency ratios (Wishart et al., 1995). Spectra were processed using Topspin version 1.3 (Bruker Biospin) and analysed using XEASY, version 1.3. ^15N-labelled SSB-2ΔSB Sample for NMR analysis were prepared in H2O containing 5% ^2H2O, 10 mM sodium phosphate, 50 mM sodium chloride, 2 mM EDTA, 2 mM DTT and 0.02% (w/v) sodium azide at pH 7.0. Two-dimensional ^1H-^15N HSQC spectrum of a 0.1 mM ^15N-labelled SSB-2ΔSB sample was recorded and 22° C. using a data matrix size of 2048×256 and with 128 scans per t1 increment. The spectral widths were 13.5 ppm for ^1H and 40.0 ppm for ^15N; carrier frequencies were 4.7 ppm for ^1H and 118 ppm for ^15N. Unlabelled iNOS N-terminal peptide (wild-type) were then titrated into the ^15N-labelled SSB-2ΔSB sample, and ^1H-^15N HSQC spectra recorded at ^15N-labelled SSB-2ΔSB:iNOS peptide ratios of 1:0.5, 1:1, and 1:1.5.
Nuclear magnetic resonance (NMR) spectroscopy was then used to further analyze the SSB-2:iNOS peptide interaction. […]

[1] = molecular target: T3, SSB-2/elongin BC complex ubiquitination of iNOS (Mus musculus, UniProt O88838); assay: Cell-free ubiquitination assay of iNOS; type: biochemical; details: excess free iNOS peptide; 10 and 40 min incubation
T3 sequence (O88838 1-264): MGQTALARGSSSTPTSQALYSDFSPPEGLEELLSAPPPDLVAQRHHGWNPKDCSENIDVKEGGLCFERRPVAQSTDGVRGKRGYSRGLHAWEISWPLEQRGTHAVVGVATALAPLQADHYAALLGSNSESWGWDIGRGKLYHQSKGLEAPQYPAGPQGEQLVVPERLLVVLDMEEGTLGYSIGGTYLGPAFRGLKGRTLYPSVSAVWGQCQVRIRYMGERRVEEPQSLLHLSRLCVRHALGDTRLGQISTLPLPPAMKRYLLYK
Method: Ubiquitination assays were performed in 20 μl in 20 mM Tris-HCl, 50 mM NaCl, 5 mM MgCl2, 2.5 mM ATP, 0.1 mM DTT. Reactions were stopped by the addition of 2×SDS PAGE loading buffer and heating at 95° C. for 5 min. Reactions contained 0.1 μM E1, 2.5 μM E2, 2.5 μM E3, 50 μM ubiquitin and 5 μM SSB-2/elonginBC and were incubated for 30 minutes or as indicated at 37° C. Cell lysate was added as substrate. Results were visualised by Western Blot using anti iNOS monoclonal antibody following SDS-PAGE.
SOCS box proteins recruit an E3 ubiquitin ligase complex which in the presence of E1 and […] enzymes polyubiquitinates interacting proteins, targeting them for proteasomal degradation. […] LPS/IFNγ stimulated macrophage lysates were used as a source of iNOS and incubated with ubiquitin and a trimeric SSB-2/elongin BC complex, in the presence of E1 and E2 enzymes, Rbx 1 and Cullin5. The reaction mixtures were then analysed by SDS-PAGE and Western blot with anti-iNOS antibodies. Enhanced. polyubiquitination of iNOS, as evidenced by higher molecular weight smearing, was observed after 10 and 40 min incubation in the presence of the SSB2/elongin BC complex.

## Ac-KEEKDINNNVKKT-NH2 [I, Ac-KEEKDINNNVKKT-NH2]
Y120A-SSB-2ΔSB
  fold reduced affinity for Y120A-SSB-2ΔSB: ~5000 fold
SSB-2ΔSB
  binding to SSB-2ΔSB by NMR: bound to SSB-2ΔSB
[1]
  inhibition of polyubiquitination of iNOS: completely inhibited
